In publication PMC11078746 (Nature, 2024):
“And” between values parts separate entries of the source, which are not always exact repeats. Equal entries are not always repeated.

Test: Mouse body weight, SW48 xenograft study with HRO761
Assay type: in vivo
Design: Body weight change, individual animals / Body weight change, group mean: unit not given here
Details: for Body weight change, group mean / Body weight change, individual animals: SW48 xenograft-bearing mice
Method: All animal studies were conducted in accordance with ethics and procedures covered by permit BS-2275 and BS-1975 issued by the Kantonales Veterinäramt Basel-Stadt and in strict adherence to guidelines of the Eidgenössisches Tierschutzgesetz and the Eidgenössische Tierschutzverordnung, Switzerland. All animal studies were approved by the internal ethics committee. All animals had access to food and water ad libitum and were identified with transponders. They were housed in a specific-pathogen-free facility in IVC racks under a 12 h–12 h light–dark cycle. To establish cell-line-derived xenograft models, 6–7-week-old female athymic nude (Crl:NU(NCr)-Foxn1^nu) or SCID-BEIGE (CB17.Cg-PrkdcscidLystbg-J/Crl) mice from Charles River were engrafted subcutaneously with 5 million tumour cells in HBSS (H6648, Sigma-Aldrich). For SNU-407, Lovo, IM95, RL95.2, Ishikawa and IGROV-1, the cells were concentrated in 50% Matrigel (354234, Corning). Patient-derived xenografts were induced and expanded by transplantation as previously described. […] For the efficacy experiment, mice were randomized into groups (n = 5–6) for a mean tumour size of 100–150 mm^3. […] Blood samples were collected on day 7 and 91. […] Tumour responses are reported with the measures of tumour volumes from the treatment start. […] Animals were randomized (n = 3) and tumour samples were collected at 0, 1, 4, 8 and 24 h on the first day and then collected 4 h after the last treatment on day 3, 8, 10, 14 (including a 24 h timepoint), 17 and 21. Tumours were excised, weighed, either frozen in liquid nitrogen and cryogenic dry pulverized with the CryoPrep system (model CP-02, Covaris) or processed to FFPE after fixation. […] On day 12, blood samples were collected for PK analysis. On the last day (3 h after the last treatment), tumours were excised, weighed, frozen in liquid nitrogen and cryogenic dry pulverized for PD analysis.

[1] = HRO761 120mg/kg, day 0 post 1st dose

## CCc1c(N2CCN(C(=O)c3ncnc(C)c3O)CC2)c(=O)n2nc(C3=CCOCC3)nc2n1CC(=O)Nc1ccc(C(F)(F)F)cc1Cl [HRO761]
HRO761 60mg/kg, day 24 post 1st dose
  Mean DBW: 2.43%
HRO761 60mg/kg, day 28 post 1st dose
  Mean DBW: 5.12%
HRO761 60mg/kg, day 31 post 1st dose
  Mean DBW: 5.38%
HRO761 60mg/kg, day 35 post 1st dose
  Mean DBW: 4.36%
HRO761 60mg/kg, day 38 post 1st dose
  Mean DBW: 2.35%
HRO761 60mg/kg, day 42 post 1st dose
  Mean DBW: 3.45%
HRO761 60mg/kg, day 45 post 1st dose
  Mean DBW: 2.45%
HRO761 60mg/kg, day 49 post 1st dose
  Mean DBW: 3.51%
HRO761 60mg/kg, day 52 post 1st dose
  Mean DBW: 2.35%
HRO761 60mg/kg, day 56 post 1st dose
  Mean DBW: 2.93%
HRO761 60mg/kg, day 59 post 1st dose
  Mean DBW: 4.86%
HRO761 60mg/kg, day 63 post 1st dose
  Mean DBW: 4.98%
HRO761 60mg/kg, day 66 post 1st dose
  Mean DBW: 5.96%
HRO761 60mg/kg, day 70 post 1st dose
  Mean DBW: 5.36%
HRO761 60mg/kg, day 73 post 1st dose
  Mean DBW: 5.45%
HRO761 60mg/kg, day 76 post 1st dose
  Mean DBW: 8.05%
HRO761 60mg/kg, day 79 post 1st dose
  Mean DBW: 6.02%
HRO761 60mg/kg, day 83 post 1st dose
  Mean DBW: 6.63%
HRO761 60mg/kg, day 86 post 1st dose
  Mean DBW: 7.71%
[1]
  Delta BW change, individual mouse: 0%
  Mean DBW: 0.00%
HRO761 120mg/kg, day 3 post 1st dose
  Mean DBW: -2.05%
HRO761 120mg/kg, day 3 post 1st dose, 120 mg/kg
  Delta BW change, individual mouse: -1.24% and 0% and -5.24% and -5.96% and 2.18%
HRO761 120mg/kg, day 7 post 1st dose
  Mean DBW: 0.64%
HRO761 120mg/kg, day 7 post 1st dose, 120 mg/kg
  Delta BW change, individual mouse: 0% (2×) and 3.8% and -3.23% and 2.62%
HRO761 120mg/kg, day 10 post 1st dose
  Mean DBW: 0.034%
HRO761 120mg/kg, day 10 post 1st dose, 120 mg/kg
  Delta BW change, individual mouse: 2.07% and 3.8% and -2.42% and -4.59% and 1.31%
HRO761 120mg/kg, day 14 post 1st dose
  Mean DBW: 1.43%
HRO761 120mg/kg, day 14 post 1st dose, 120 mg/kg
  Delta BW change, individual mouse: 4.15% and 4.56% and -2.82% and -0.92% and 2.18%
HRO761 120mg/kg, day 17 post 1st dose
  Mean DBW: 1.14%
HRO761 120mg/kg, day 21 post 1st dose
  Mean DBW: 5.29%
HRO761 120mg/kg, day 24 post 1st dose
  Mean DBW: 6.66%
HRO761 120mg/kg, day 28 post 1st dose
  Mean DBW: 5.89%
HRO761 120mg/kg, day 31 post 1st dose
  Mean DBW: 6.52%
HRO761 120mg/kg, day 35 post 1st dose
  Mean DBW: 7.34%
HRO761 120mg/kg, day 38 post 1st dose
  Mean DBW: 4.89%
HRO761 120mg/kg, day 42 post 1st dose
  Mean DBW: 6.61%
HRO761 120mg/kg, day 45 post 1st dose
  Mean DBW: 7.02%
HRO761 120mg/kg, day 49 post 1st dose
  Mean DBW: 8.54%
HRO761 120mg/kg, day 52 post 1st dose
  Mean DBW: 5.69%
HRO761 120mg/kg, day 56 post 1st dose
  Mean DBW: 7.31%
HRO761 120mg/kg, day 59 post 1st dose
  Mean DBW: 8.08%
HRO761 120mg/kg, day 63 post 1st dose
  Mean DBW: 9.90%
HRO761 120mg/kg, day 66 post 1st dose
  Mean DBW: 9.60%
HRO761 120mg/kg, day 70 post 1st dose
  Mean DBW: 9.57%
HRO761 120mg/kg, day 73 post 1st dose
  Mean DBW: 7.95%
HRO761 120mg/kg, day 76 post 1st dose
  Mean DBW: 11.43%
HRO761 120mg/kg, day 79 post 1st dose
  Mean DBW: 9.25%
HRO761 120mg/kg, day 83 post 1st dose
  Mean DBW: 10.23%
HRO761 120mg/kg, day 86 post 1st dose
  Mean DBW: 9.35%
HRO761 40mg/kg, day 90 post 1st dose
  Body weight change, group mean: 13.42
HRO761 40mg/kg, day 90 post 1st dose, 40 mg/kg
  Body weight change, individual animals: 12.73 and 18.18 and 7.58 and 10.23 and 18.39
HRO761 40mg/kg, day 92 post 1st dose
  Body weight change, group mean: 10.60
HRO761 40mg/kg, day 92 post 1st dose, 40 mg/kg
  Body weight change, individual animals: 10.45 and 10.82 and 5.05 and 12.5 and 14.18
HRO761 60mg/kg, day 90 post 1st dose
  Body weight change, group mean: 7.89
HRO761 60mg/kg, day 90 post 1st dose, 60 mg/kg
  Body weight change, individual animals: 7.66 and 9.39 and 10.88 and 1.67 and 9.83
HRO761 60mg/kg, day 92 post 1st dose
  Body weight change, group mean: 5.46
HRO761 60mg/kg, day 92 post 1st dose, 60 mg/kg
  Body weight change, individual animals: 5.11 and 6.53 and 6.69 and 0.42 and 8.55
HRO761 120mg/kg, day 90 post 1st dose
  Body weight change, group mean: 10.59
HRO761 120mg/kg, day 90 post 1st dose, 120 mg/kg
  Body weight change, individual animals: 9.96 and 14.07 and 7.66 and 5.96 and 15.28
HRO761 120mg/kg, day 92 post 1st dose
  Body weight change, group mean: 7.50
HRO761 120mg/kg, day 92 post 1st dose, 120 mg/kg
  Body weight change, individual animals: 5.81 and 9.13 and 4.84 and 5.5 and 12.23
Doses up to 120 mg per kg
  toxicity inferred from animal weight: did not cause toxicity
